# From US4504580A, “Antibiotics produced by fermentation of a novel strain of Streptomyces hygroscopicus” (Bristol-Myers Company, priority 1983, dated 1985)
# Read-outs that look alike come from different tables or passages of the source.
# Legend:
# Assay type in all cases: cell-based
# [1] = test system: Staphylococcus aureus 209P; assay: MIC by serial two-fold agar dilution, S. aureus 209P; conditions: Staphylococcus aureus, 209P
# Protocol: (§1) The minimum inhibitory concentrations (MIC) of Bu-2659A, B, C, D and E were determined for a variety of gram-positive and gram-negative bacteria by the serial two-fold agar dilution method using the Steer's multi-inoculating apparatus. The inoculum was standardized as a 10^4 dilution of an overnight culture of the test organisms in Heart Infusion Broth (Difco). […] Reference antibiotics utilized in these tests included commercially available neomycin as well as its components, neomycins B and C [as used herein, the term "neomycin" means the commercial product containing neomycins B and C at an approximate ratio of 7:3], paromomycin [the commercial product containing >90% of paromomycin I and <10% of paromomycin II] and ribostamycin.
# [2] = test system: Staphylococcus aureus Smith; assay: MIC by serial two-fold agar dilution, S. aureus Smith; conditions: Staphylococcus aureus
# Protocol: as §1
# [3] = test system: Staphylococcus aureus D136; assay: MIC by serial two-fold agar dilution, S. aureus D136; conditions: Staphylococcus aureus, D136
# Protocol: as §1
# [4] = test system: Micrococcus luteus PCI 1001; assay: MIC by serial two-fold agar dilution, M. luteus PCI 1001; conditions: Micrococcus luteus, PCI1001
# Protocol: as §1
# Micrococcus flavus D12 = assay: MIC by serial two-fold agar dilution, M. flavus D12; conditions: Micrococcus flavus, D12
# Protocol: as §1
# [5] = test system: Bacillus subtilis PCI 219; assay: MIC by serial two-fold agar dilution, B. subtilis PCI 219; conditions: Bacillus subtilis, PCI219
# Protocol: as §1
# Escherichia coli NIHJ = assay: MIC by serial two-fold agar dilution, E. coli NIHJ; conditions: Escherichia coli; Table 7; Mueller-Hinton agar; read-out: MIC
# Protocol: as §1
# Escherichia coli Juhl = assay: MIC by serial two-fold agar dilution, E. coli Juhl; conditions: Escherichia coli
# Protocol: as §1
# [6] = test system: Klebsiella pneumoniae D11; assay: MIC by serial two-fold agar dilution, K. pneumoniae D11; conditions: Klebsiella pneumoniae, D11
# Protocol: as §1
# Proteus vulgaris A9436 = assay: MIC by serial two-fold agar dilution, P. vulgaris A9436; conditions: Proteus vulgaris, A9436
# Protocol: as §1
# Proteus mirabilis A9554 = assay: MIC by serial two-fold agar dilution, P. mirabilis A9554; conditions: Proteus mirabilis, A9554
# Protocol: as §1
# Proteus mirabilis A9906 = assay: MIC by serial two-fold agar dilution, P. mirabilis A9906; conditions: Proteus mirabilis, A9906
# Protocol: as §1
# Proteus morganii A9553 = assay: MIC by serial two-fold agar dilution, P. morganii A9553; conditions: Morganella morganii, A9553
# Protocol: as §1
# Proteus rettgeri A15167 = assay: MIC by serial two-fold agar dilution, P. rettgeri A15167; conditions: Providencia rettgeri, A15167
# Protocol: as §1
# [7] = test system: Pseudomonas aeruginosa D15; assay: MIC by serial two-fold agar dilution, P. aeruginosa D15; conditions: Pseudomonas aeruginosa, D15
# Protocol: as §1
# [8] = test system: Pseudomonas aeruginosa A9930; assay: MIC by serial two-fold agar dilution, P. aeruginosa A9930; conditions: Pseudomonas aeruginosa, A9930
# Protocol: as §1
# [9] = test system: Serratia marcescens A20019; assay: MIC by serial two-fold agar dilution, S. marcescens A20019; conditions: Serratia marcescens, A20019
# Protocol: as §1
# [10] = test system: Staphylococcus aureus A20239; assay: MIC, aminoglycoside-resistant S. aureus A20239; conditions: Staphylococcus aureus, A20239
# Protocol: as §1
# [11] = test system: Bacillus brevis IFO 12334; assay: MIC, aminoglycoside-resistant B. brevis IFO 12334; conditions: Brevibacillus brevis, IFO12334
# Protocol: as §1
# Escherichia coli ML 1630 = assay: MIC, aminoglycoside-resistant E. coli ML 1630; conditions: Escherichia coli, ML1630; Table 9; inactivating enzyme APH(3')-I; Mueller-Hinton agar; read-out: MIC
# Protocol: as §1
# Escherichia coli A20107 = assay: MIC, aminoglycoside-resistant E. coli A20107; conditions: Escherichia coli, A20107; Table 9; inactivating enzyme APH(3')-II; Mueller-Hinton agar; read-out: MIC
# Protocol: as §1
# [12] = test system: Escherichia coli JR66/W677; assay: MIC, aminoglycoside-resistant E. coli JR66/W677; conditions: Escherichia coli, JR66/W677
# Protocol: as §1
# Escherichia coli JR88 = assay: MIC, aminoglycoside-resistant E. coli JR88; conditions: Escherichia coli, JR88
# Protocol: as §1
# [13] = test system: Escherichia coli JR35/C600; assay: MIC, aminoglycoside-resistant E. coli JR35/C600; conditions: Escherichia coli, JR35/C600
# Protocol: as §1
# Escherichia coli A20732 = assay: MIC, aminoglycoside-resistant E. coli A20732; conditions: Escherichia coli, A20732; Table 9; inactivating enzyme ANT(2"); Mueller-Hinton agar; read-out: MIC
# Protocol: as §1
# [14] = test system: Escherichia coli NR79/W677; assay: MIC, aminoglycoside-resistant E. coli NR79/W677; conditions: Escherichia coli, NR79/W677
# Protocol: as §1
# [15] = test system: Enterobacter cloacae A20364; assay: MIC, aminoglycoside-resistant E. cloacae A20364; conditions: Enterobacter cloacae, A20364
# Protocol: as §1
# [16] = test system: Pseudomonas aeruginosa A20601; assay: MIC, aminoglycoside-resistant P. aeruginosa A20601; conditions: Pseudomonas aeruginosa, A20601
# Protocol: as §1
# [17] = test system: Pseudomonas aeruginosa A20896; assay: MIC, aminoglycoside-resistant P. aeruginosa A20896; conditions: Pseudomonas aeruginosa, A20896
# Protocol: as §1
# [18] = test system: gram-positive and gram-negative bacteria; assay: In vitro antibacterial spectra (MIC), overall comparison, Table 7; conditions: Table 7 organisms; for activity relative to Bu-2659A: as active as Bu-2659A
# Protocol: as §1
# [19] = Table 7, Mueller-Hinton agar, read-out: MIC
smiles,measurement,setting,value
"NC[C@@H]1O[C@H](O[C@H]2[C@@H](O)[C@H](O[C@@H]3[C@@H](O)[C@H](N)C[C@H](N)[C@H]3O[C@H]3O[C@H](CO)[C@@H](O)[C@H](O)[C@H]3N)O[C@@H]2CO)[C@H](N)[C@@H](O)[C@@H]1O [Paromomycin, paromomycin]",MIC,[1],0.8 µg/mL
same,MIC,[2],1.6 µg/mL
same,MIC,[3],0.8 µg/mL
same,MIC,[4],6.3 µg/mL
same,MIC,Micrococcus flavus D12,12.5 µg/mL
same,MIC,[5],0.2 µg/mL
same,MIC,Escherichia coli NIHJ,3.1 µg/mL
same,MIC,Escherichia coli Juhl,12.5 µg/mL
same,MIC,[6],0.4 µg/mL
same,MIC,Proteus vulgaris A9436,0.8 µg/mL
same,MIC,Proteus mirabilis A9554,0.8 µg/mL
same,MIC,Proteus mirabilis A9906,0.8 µg/mL
same,MIC,Proteus morganii A9553,1.6 µg/mL
same,MIC,Proteus rettgeri A15167,1.6 µg/mL
same,MIC,[7],50 µg/mL
same,MIC,[8],12.5 µg/mL
same,MIC,[9],1.6 µg/mL
same,MIC,[10],> 100 µg/mL
same,MIC,[11],> 100 µg/mL
same,MIC,Escherichia coli ML 1630,> 100 µg/mL
same,MIC,Escherichia coli A20107,> 100 µg/mL
same,MIC,[12],> 100 µg/mL
same,MIC,Escherichia coli JR88,1.6 µg/mL
same,MIC,[13],> 100 µg/mL
same,MIC,Escherichia coli A20732,1.6 µg/mL
same,MIC,[14],> 100 µg/mL
same,MIC,[15],> 100 µg/mL
same,MIC,[16],> 100 µg/mL
same,MIC,[17],> 100 µg/mL
"NC[C@H]1O[C@H](O[C@H]2[C@H](O[C@@H]3O[C@H](CO)[C@@H](O[C@H]4O[C@H](CN)[C@@H](O)[C@H](O)[C@H]4N)[C@H]3O)[C@@H](O)[C@H](O)C[C@@H]2N)[C@H](N)[C@@H](O)[C@@H]1O [Bu-2659B, 1-deamino-1-hydroxyneomycin C]",MIC,[1]; [19],3.1 µg/mL
same,MIC,[2]; [19],3.1 µg/mL
same,MIC,[3]; [19],6.3 µg/mL
same,MIC,[4]; [19],> 100 µg/mL
same,MIC,Micrococcus flavus D12; [19],> 100 µg/mL
same,MIC,[5]; [19],0.4 µg/mL
same,MIC,Escherichia coli NIHJ,12.5 µg/mL
same,MIC,Escherichia coli Juhl; [19],50 µg/mL
same,MIC,[6]; [19],1.6 µg/mL
same,MIC,Proteus vulgaris A9436; [19],3.1 µg/mL
same,MIC,Proteus mirabilis A9554; [19],6.3 µg/mL
same,MIC,Proteus mirabilis A9906; [19],6.3 µg/mL
same,MIC,Proteus morganii A9553; [19],12.5 µg/mL
same,MIC,Proteus rettgeri A15167; [19],3.1 µg/mL
same,MIC,[7]; [19],> 100 µg/mL
same,MIC,[8]; [19],> 100 µg/mL
same,MIC,[9]; [19],100 µg/mL
same,activity relative to Bu-2659A,[18],approximately 1/4
"NC[C@@H]1O[C@H](O[C@H]2[C@@H](O)[C@H](O[C@@H]3[C@@H](O)[C@H](O)C[C@H](N)[C@H]3O[C@H]3O[C@H](CO)[C@@H](O)[C@H](O)[C@H]3N)O[C@@H]2CO)[C@H](N)[C@@H](O)[C@@H]1O [Bu-2659C, 1-deamino-1-hydroxyparomomycin I]",MIC,[1]; [19],3.1 µg/mL
same,MIC,[2]; [19],6.3 µg/mL
same,MIC,[3]; [19],6.3 µg/mL
same,MIC,[4]; [19],> 100 µg/mL
same,MIC,Micrococcus flavus D12; [19],> 100 µg/mL
same,MIC,[5]; [19],0.8 µg/mL
same,MIC,Escherichia coli NIHJ,6.3 µg/mL
same,MIC,Escherichia coli Juhl; [19],25 µg/mL
same,MIC,[6]; [19],1.6 µg/mL
same,MIC,Proteus vulgaris A9436; [19],1.6 µg/mL
same,MIC,Proteus mirabilis A9554; [19],3.1 µg/mL
same,MIC,Proteus mirabilis A9906; [19],3.1 µg/mL
same,MIC,Proteus morganii A9553; [19],6.3 µg/mL
same,MIC,Proteus rettgeri A15167; [19],3.1 µg/mL
same,MIC,[7]; [19],25 µg/mL
same,MIC,[8]; [19],12.5 µg/mL
same,MIC,[9]; [19],6.3 µg/mL
same,activity relative to Bu-2659A,[18],approximately 1/4
"NC[C@H]1O[C@H](O[C@H]2[C@H](O[C@@H]3O[C@H](CO)[C@@H](O[C@H]4O[C@@H](CO)[C@@H](O)[C@H](O)[C@H]4N)[C@H]3O)[C@@H](O)[C@H](O)C[C@@H]2N)[C@H](N)[C@@H](O)[C@@H]1O [Bu-2659D, 1,6'""-dideamino-1,6'""-dihydroxyneomycin B]",MIC,[1]; [19],6.3 µg/mL
same,MIC,[2]; [19],25 µg/mL
same,MIC,[3]; [19],25 µg/mL
same,MIC,[4]; [19],100 µg/mL
same,MIC,Micrococcus flavus D12; [19],100 µg/mL
same,MIC,[5]; [19],1.6 µg/mL
same,MIC,Escherichia coli NIHJ,12.5 µg/mL
same,MIC,Escherichia coli Juhl; [19],50 µg/mL
same,MIC,[6]; [19],1.6 µg/mL
same,MIC,Proteus vulgaris A9436; [19],3.1 µg/mL
same,MIC,Proteus mirabilis A9554; [19],6.3 µg/mL
same,MIC,Proteus mirabilis A9906; [19],6.3 µg/mL
same,MIC,Proteus morganii A9553; [19],12.5 µg/mL
same,MIC,Proteus rettgeri A15167; [19],3.1 µg/mL
same,MIC,[7]; [19],> 100 µg/mL
same,MIC,[8]; [19],50 µg/mL
same,MIC,[9]; [19],100 µg/mL
same,"in vitro antibacterial activity, in words",[18],less active than components B and C
